Reference: PMC4832243, “Discovery of Potent VEGFR-2 Inhibitors based on Furopyrimidine and Thienopyrimidne Scaffolds as Cancer Targeting Agents” (Scientific Reports, 2016)

Tests used:
[1] = tested on: VEGF-induced vascular permeability (Evans Blue extravasation); assay: Miles vascular permeability assay; set-up: species or system mice; conditions: in vivo; 10 mg/kg (Fig. 15)
Method: Miles Vascular Permeability Assay. One to two days prior to the experiment, mice were shaved to expose the skin. Mice were anesthetized with intra-peritoneal injection of Avertin. A sterile solution of 1% Evans Blue (EB) in PBS was prepared and 100 μl was injected IV into the tail vein, using a needle (small gauge, 27–30) at a 10–15 degree angle. The animals were then left for (30–60) min. VEGF (50 μl of 1 ng/μl) and 50 μl of PBS with 0.05% gelatin were injected intradermally using a 30-gauge needle into the skin overlying the back. After 20 min, the animals were sacrificed by cervical dislocation that is recommended to limit significant interference with vascular permeability. The skin was opened, exposed and representative pictures were taken to assess the intensity of EB […]. The Formamide/EB mixture was centrifuged and supernatant absorbance was measured at 600 nm (Shimadzu Spectrophotometer, UV-1601; Japan). extravasation was calculated as ng EB per mg tissue.

[2] = tested on: HUVEC umbilical vein endothelial cells; assay: In vitro HUVEC anti-proliferative assay (alamarBlue); type: cell-based; conditions: Homo sapiens, HUVEC proliferation at 10 μM, 72 hours
active caspase 3 = assay: Immunohistochemistry of EAC solid tumor sections, active caspase 3; conditions: oral treatment of EAC-bearing mice
phospho-VEGFR-2 (Tyr951) = phospho-VEGFR-2 (Tyr951) (Mus musculus, UniProt P35918); assay: Immunohistochemistry of EAC solid tumor sections, phospho-VEGFR-2; conditions: oral treatment of EAC-bearing mice
Chain of phospho-VEGFR-2 (Tyr951) (P35918 20-1345): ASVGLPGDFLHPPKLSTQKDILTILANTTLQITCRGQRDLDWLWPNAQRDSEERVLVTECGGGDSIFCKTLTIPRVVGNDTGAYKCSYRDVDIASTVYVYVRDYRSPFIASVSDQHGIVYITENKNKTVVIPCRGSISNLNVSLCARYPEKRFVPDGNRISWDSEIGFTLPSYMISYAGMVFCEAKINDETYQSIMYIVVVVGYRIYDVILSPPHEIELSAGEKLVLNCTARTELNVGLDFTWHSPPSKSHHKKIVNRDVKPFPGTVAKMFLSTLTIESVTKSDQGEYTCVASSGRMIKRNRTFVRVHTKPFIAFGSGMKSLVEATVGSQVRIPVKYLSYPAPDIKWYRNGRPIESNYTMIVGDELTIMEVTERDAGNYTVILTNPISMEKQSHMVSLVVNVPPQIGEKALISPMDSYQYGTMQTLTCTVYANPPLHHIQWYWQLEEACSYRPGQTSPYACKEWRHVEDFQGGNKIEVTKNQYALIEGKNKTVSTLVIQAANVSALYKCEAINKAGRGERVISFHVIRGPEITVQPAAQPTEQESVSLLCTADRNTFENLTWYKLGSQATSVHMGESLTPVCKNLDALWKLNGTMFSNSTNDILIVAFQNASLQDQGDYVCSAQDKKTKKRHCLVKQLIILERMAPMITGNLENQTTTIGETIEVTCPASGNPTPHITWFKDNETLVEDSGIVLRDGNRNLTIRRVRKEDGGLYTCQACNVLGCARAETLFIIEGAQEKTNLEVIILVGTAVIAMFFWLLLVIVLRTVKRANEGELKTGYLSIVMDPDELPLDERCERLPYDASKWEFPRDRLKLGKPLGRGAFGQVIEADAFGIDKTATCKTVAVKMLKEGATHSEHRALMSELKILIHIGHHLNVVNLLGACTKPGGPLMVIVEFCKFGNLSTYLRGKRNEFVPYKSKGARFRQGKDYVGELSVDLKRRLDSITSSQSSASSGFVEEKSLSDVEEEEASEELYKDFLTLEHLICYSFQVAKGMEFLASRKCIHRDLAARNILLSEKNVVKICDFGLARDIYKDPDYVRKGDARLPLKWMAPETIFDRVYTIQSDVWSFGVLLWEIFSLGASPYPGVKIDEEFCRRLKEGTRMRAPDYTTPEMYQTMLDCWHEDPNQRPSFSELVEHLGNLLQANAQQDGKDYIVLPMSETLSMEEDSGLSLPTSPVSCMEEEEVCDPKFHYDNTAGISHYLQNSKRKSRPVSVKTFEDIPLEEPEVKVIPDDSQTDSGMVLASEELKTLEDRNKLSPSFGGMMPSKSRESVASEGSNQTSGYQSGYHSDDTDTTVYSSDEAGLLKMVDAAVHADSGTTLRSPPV

c-Src = c-Src (Homo sapiens, UniProt P12931); assay: In vitro multiple-kinase inhibition assay, c-Src; type: biochemical
Chain of c-Src (P12931 whole entry, species assumed): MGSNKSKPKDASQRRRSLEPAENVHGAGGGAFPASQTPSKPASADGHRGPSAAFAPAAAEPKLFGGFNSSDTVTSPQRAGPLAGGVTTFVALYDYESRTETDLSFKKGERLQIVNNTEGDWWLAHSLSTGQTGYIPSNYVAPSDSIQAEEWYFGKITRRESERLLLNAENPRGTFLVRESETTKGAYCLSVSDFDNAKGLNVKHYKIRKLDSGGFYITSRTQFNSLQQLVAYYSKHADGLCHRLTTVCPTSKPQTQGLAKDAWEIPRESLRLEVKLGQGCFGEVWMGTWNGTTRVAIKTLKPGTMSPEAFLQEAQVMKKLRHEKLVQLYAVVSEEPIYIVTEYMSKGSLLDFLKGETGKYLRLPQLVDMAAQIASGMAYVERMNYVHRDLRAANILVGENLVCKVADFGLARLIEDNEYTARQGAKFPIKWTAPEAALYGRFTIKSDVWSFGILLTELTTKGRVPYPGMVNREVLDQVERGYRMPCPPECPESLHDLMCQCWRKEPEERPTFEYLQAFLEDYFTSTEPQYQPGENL
Method: (§1) In vitro multiple-kinase inhibition assay. […] Kinase enzymatic activity of the tested compounds was evaluated against a reference kinase inhibitor at 10 μM (Table 2).
(§2) The multiple kinases activity at single dose concentration of 10 μM was performed, c-Kit, c-Raf, c-Src, RET served as the enzyme source. […] Kinase-Glo Plus Luminescence kinase assay kit (Promega#V3772), ADP-Glo Luminescence assay kit was used for c-kit assay (Supplementary). […]
(§3) mM MgCl2, 0.1 mg/ml BSA, 1 mM DTT, 10 µM ATP, Kinase substrate and VEGFR. After the enzymatic reaction, 50 µl of Kinase-Glo Plus Luminescence kinase assay solution (Promega) was added to each reaction and incubate the plate for 5 minutes at room temperature.
(§4) Luminescence signal was measured using a BioTek Synergy 2 microplate reader. VEGFR activity assays were performed in duplicate at each concentration.
(§5) The luminescence data were analyzed using the computer software, Graphpad Prism. The difference between luminescence intensities in the absence of VEGFR (Lut) and in the presence of VEGFR (Luc) was defined as 100 % activity (Lut – Luc). Using luminescence signal (Lu) in the presence of the compound, % activity was calculated as:
(§6) % activity = {(Lut - Lu)/(Lut - Luc)}×100%, where Lu= the luminescence intensity in the […]
(§7) IC50 determination for inhibitor against VEGFR was calculated. The values of % activity versus a series of compound concentrations (1 nM - 10 nM - 100 nM - 1 µM - 10 µM) were then […]
(§8) or Hill coefficient. The IC50 value was determined by the concentration causing a half-maximal […]
(§9) In vitro multiple-kinase inhibition assay
(§10) Luminescence signal was measured using a BioTek Synergy 2 microplate reader […]
(§11) The luminescence data were analyzed using the same computer software and the same protocol

[3] = tested on: Ehrlich ascites carcinoma (EAC) solid tumor; assay: In vivo anticancer activity, EAC solid tumor murine model; set-up: species or system Swiss albino mice; conditions: for TGI (%): once daily for 8 consecutive days; for Histopathological examination of EAC tumor sections (necrosis): hematoxylin-eosin, 40x
Method: Animals. Female Swiss albino mice weighing 15–20 g were used in the present study. They were obtained from the animal breeding laboratory, National Cancer Institute (NCI), Cairo University, Egypt. Animals were kept in our animal facility, faculty of pharmacy, Ain Shams university at 25 ± 2 °C and a relative humidity of 40–45% with alternative day and night cycles of 12 h each. Animals had free access to pellet food and water ad libitum. Standard diet pellets (El-Nasr, Abu Zaabal, Egypt) contained not less than 20% protein, 5% fiber, 3.5% fat, 6.5% ash and a vitamin mixture. Animal care and experiments were conducted in accordance with the protocols approved by the Ethics Research Committee, Faculty of Pharmacy, Ain Shams University, following the Institutional Animal Care and Use Committee guidelines.
Tumor cells preparation and transplantation. Ehrlich ascites carcinoma (EAC) cells were obtained from NCI, Cairo University, Egypt. EAC cells were maintained in the ascitic form in Swiss albino mice by intraperitoneal transplantation of each mouse every 10 days. Ascitic fluid was drawn from tumor-bearing mice at the log phase (7–8th day of tumor bearing) of the tumor cells. The freshly drawn fluid was diluted with ice-cold sterile isotonic saline. 200 μl tumor cell suspension containing 2 × 10^6 tumor cells were then subcutaneously injected in each mouse.
Experimental design. Swiss albino mice were divided into six groups (n = 6 per group).
Evaluation of effectiveness. Tumor growth curve was drawn according to the change in tumor volume from first day of treatment (day 0) till day 7. Longest and shortest diameters of the solid tumor were monitored using a digital vernier caliper. Tumor volume (TV) of each animal was calculated using the following formula: […]
Tumor growth inhibition (TGI) was calculated as follows.
RTV = (Tumor volume at the day of measurement)/Tumor volume at the initial day.
Histopathological Examination
thickness by slidge microtome.
graded ethanol solutions.

VEGFR-2 (KDR) = target: T1, VEGFR-2 (KDR) (Homo sapiens, UniProt P35968); assay: In vitro VEGFR-2 tyrosine kinase activity (Kinase-Glo Plus luminescence, BPS Bioscience); type: biochemical; conditions: 5 concentrations 1 nM - 10 μM
T1 construct: purchased BPS Bioscience 40301
T1 sequence (P35968 20-1356): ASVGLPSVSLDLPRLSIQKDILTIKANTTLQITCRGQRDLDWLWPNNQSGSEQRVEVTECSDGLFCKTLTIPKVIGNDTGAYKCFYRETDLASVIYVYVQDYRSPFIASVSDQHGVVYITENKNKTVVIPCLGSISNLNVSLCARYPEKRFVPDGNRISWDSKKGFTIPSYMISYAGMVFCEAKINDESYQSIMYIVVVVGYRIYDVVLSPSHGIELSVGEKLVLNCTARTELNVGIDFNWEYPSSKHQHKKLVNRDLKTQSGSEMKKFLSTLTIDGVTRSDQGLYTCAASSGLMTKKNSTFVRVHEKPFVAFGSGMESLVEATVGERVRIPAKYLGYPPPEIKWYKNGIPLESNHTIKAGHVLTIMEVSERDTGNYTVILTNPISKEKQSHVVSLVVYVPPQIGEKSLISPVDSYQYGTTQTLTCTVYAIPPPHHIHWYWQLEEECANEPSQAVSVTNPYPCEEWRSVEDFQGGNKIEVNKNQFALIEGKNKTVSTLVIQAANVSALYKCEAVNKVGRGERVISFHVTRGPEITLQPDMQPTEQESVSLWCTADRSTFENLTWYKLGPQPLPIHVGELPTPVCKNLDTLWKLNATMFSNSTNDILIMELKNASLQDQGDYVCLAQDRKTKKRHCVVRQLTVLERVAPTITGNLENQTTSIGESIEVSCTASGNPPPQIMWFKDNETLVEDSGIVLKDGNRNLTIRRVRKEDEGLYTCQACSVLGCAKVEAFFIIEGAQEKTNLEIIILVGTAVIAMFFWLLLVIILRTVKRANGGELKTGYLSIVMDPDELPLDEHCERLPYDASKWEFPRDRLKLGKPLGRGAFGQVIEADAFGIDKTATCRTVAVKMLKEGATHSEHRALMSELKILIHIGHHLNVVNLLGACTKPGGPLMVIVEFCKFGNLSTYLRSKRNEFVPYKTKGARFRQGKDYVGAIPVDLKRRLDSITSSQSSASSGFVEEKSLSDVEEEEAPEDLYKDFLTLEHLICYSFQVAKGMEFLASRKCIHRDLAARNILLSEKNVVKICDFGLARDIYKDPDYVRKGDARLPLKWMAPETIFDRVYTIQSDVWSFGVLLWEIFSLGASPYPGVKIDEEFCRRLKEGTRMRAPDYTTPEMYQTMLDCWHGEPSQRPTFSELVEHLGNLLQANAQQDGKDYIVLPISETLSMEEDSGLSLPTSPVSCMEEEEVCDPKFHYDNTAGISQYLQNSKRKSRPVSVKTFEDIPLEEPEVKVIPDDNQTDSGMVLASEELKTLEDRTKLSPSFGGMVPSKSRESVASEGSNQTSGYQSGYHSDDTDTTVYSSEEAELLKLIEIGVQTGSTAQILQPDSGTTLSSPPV

RET = RET (Homo sapiens, UniProt P07949); assay: In vitro multiple-kinase inhibition assay, RET; type: biochemical
Method: as §1, §2, §3, §4, §5, §6, §7, §8, §9, §10, §11

[4] = Toxicity: vital organs' indices and histopathology in EAC solid tumor bearing mice; type: in vivo, Swiss albino mice; conditions: for Brain Index / Heart Index / Kidney Index / Liver Index: mean ± SD (n = 6); for Histopathological examination of liver, kidney, heart and brain samples: 10 mg/kg, EAC solid tumor bearing mice (40x)
CD31 and CD34 (% MVD) = assay: Immunohistochemistry of EAC solid tumor sections, microvessel density (CD31, CD34); conditions: oral treatment of EAC-bearing mice
c-Kit = c-Kit (Homo sapiens, UniProt P10721); assay: In vitro multiple-kinase inhibition assay, c-Kit (ADP-Glo); type: biochemical
Chain of c-Kit (P10721 26-976): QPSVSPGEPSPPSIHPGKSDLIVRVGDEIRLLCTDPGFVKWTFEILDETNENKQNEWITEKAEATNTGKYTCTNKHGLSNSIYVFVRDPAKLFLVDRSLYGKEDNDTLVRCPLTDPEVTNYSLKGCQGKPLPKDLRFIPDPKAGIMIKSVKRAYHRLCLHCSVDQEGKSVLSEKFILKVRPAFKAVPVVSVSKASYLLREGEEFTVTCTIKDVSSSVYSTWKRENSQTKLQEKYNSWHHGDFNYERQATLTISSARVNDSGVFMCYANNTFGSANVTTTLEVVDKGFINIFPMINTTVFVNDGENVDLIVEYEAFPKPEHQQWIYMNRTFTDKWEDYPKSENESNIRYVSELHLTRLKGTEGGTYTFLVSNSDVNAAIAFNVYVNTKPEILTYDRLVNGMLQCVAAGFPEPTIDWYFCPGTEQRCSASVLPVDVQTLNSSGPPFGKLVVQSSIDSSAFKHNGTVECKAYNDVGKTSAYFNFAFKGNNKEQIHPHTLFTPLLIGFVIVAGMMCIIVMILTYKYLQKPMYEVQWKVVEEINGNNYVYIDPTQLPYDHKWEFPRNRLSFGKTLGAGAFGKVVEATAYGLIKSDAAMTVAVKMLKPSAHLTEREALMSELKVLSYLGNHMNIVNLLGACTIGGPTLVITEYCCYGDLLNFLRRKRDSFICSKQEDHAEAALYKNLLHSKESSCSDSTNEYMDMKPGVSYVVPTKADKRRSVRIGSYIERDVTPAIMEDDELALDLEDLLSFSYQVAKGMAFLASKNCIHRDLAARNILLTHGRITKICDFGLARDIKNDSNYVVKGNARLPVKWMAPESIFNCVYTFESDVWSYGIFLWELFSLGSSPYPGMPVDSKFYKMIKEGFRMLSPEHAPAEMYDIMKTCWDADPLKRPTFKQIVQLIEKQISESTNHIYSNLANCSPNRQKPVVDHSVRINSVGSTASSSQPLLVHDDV
Method: as §1, §2, §3, §4, §5, §6, §7, §8, §9
The assay was performed using the same conditions for VEGFR-2 activity assay (section 5.2.1.1). The assays for c-Kit was an exception, it was performed using ADP-Glo Kinase assay reagents (Promega). It measures kinase activity by quantitating the ADP amount produced from the enzymatic reaction. The luminescent signal from the assay is correlated with the amount of ADP present and is directly correlated with the amount of kinase activity. Other conditions are same to the previous section except the final reaction volume was reduced to 25 µl. After the 40 min kinase reaction at 30 °C, 25 µl of ADP-Glo reagent was added and incubated for 45 min at room temperature followed by another 50 min incubation with 50 µl of Kinase detection mixture.
as §10, §11

c-Raf = c-Raf (Homo sapiens, UniProt P04049); assay: In vitro multiple-kinase inhibition assay, c-Raf; type: biochemical
Chain of c-Raf (P04049 whole entry, species assumed): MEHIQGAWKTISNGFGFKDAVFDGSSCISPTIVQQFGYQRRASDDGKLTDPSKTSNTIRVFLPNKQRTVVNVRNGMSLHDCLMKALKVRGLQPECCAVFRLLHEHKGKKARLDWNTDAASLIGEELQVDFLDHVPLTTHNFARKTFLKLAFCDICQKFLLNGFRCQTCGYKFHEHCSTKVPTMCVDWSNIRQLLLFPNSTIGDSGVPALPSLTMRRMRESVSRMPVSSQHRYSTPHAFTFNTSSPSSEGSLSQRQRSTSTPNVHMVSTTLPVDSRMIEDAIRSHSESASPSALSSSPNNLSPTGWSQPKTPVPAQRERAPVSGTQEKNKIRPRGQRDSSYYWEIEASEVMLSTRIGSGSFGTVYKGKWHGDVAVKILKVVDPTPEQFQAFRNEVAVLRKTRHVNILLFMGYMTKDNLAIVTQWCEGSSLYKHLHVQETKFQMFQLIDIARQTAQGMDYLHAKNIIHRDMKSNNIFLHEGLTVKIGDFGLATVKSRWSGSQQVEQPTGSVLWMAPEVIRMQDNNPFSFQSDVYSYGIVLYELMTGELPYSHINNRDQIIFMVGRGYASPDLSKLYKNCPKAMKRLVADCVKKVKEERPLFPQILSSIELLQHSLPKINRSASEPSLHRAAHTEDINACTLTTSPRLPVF
Method: as §1, §2, §3, §4, §5, §6, §7, §8, §9, §10, §11

VEGFR-2 = conditions: read-out: VEGFR-2 IC50 of pyrrolo[3,2-d]pyrimidine derivative (III); cited from earlier work
RET tyrosine kinase = target: RET tyrosine kinase; set-up: method as in PMID 16507829; conditions: cited from earlier work
wild-type b-Raf = conditions: read-out: wild-type b-Raf IC50; cited from earlier work
[5] = tested on: platelet-derived growth factor receptor-B (PDGFR-B); conditions: cited from earlier work
[6] = tested on: stem cell factor receptor (c-KIT); conditions: cited from earlier work
[7] = target: fms-related tyrosine kinase 3 receptor (FLT3); conditions: cited from earlier work

For `Cc1ccc(NC(=O)Nc2ccc(Oc3ncnc4sc5c(c34)CCCC5)cc2)cc1Cl` [Compound 21e], the “Antiangiogenic effect in Miles vascular permeability assay” value [1] was “confirmed the antiangiogenic effects”, the activity at 10 µM ([2]; read-out: % Cell growth) was 54% and the inhibition at 10 µM ([2]; read-out: % Cell inhibition) was 46%. For the same compound, the “Active caspase 3 levels in EAC solid tumor” value (active caspase 3) was “increased active caspase 3 levels”, the “VEGFR-2 phosphorylation in EAC solid tumor” value (phospho-VEGFR-2 (Tyr951)) was “decreased VEGFR-2 phosphoryaltion” and the inhibition at 10 µM (c-Src) was 6%. The “Tumor Index” value ([3]; 5 mg/kg/day po, 8 consecutive days, mean ± SD, n = 6) was 0.041 ± 0.007, the “TGI (%)” value ([3]; 5 mg/kg/day po) was 79.1% and the “Histopathological examination of EAC tumor sections (necrosis)” value (“Histopathological examination … (necrosis)” for short) ([3]; 5 mg/kg) was “moderate diffuse necrosis”. For the same compound, the “TGI (%)” value ([3]; 10 mg/kg/day po) was 82.7%, the “Histopathological examination … (necrosis)” value ([3]; 10 mg/kg) was “severe necrosis in a wide area” and the IC50 (VEGFR-2 (KDR)) was 21 nM. The inhibition at 10 µM (RET) was 91%, the “Brain Index” value ([4]; 5 mg/kg/day po) was 0.0167 ± 0.002 and the “Heart Index” value ([4]; 5 mg/kg/day po) was 0.0044 ± 0.0013. The “Kidney Index” value ([4]; 5 mg/kg/day po) was 0.012 ± 0.002, the “Liver Index” value ([4]; 5 mg/kg/day po) was 0.048 ± 0.006 and the “Brain Index” value ([4]; 10 mg/kg/day po) was 0.0174 ± 0.002. The “Heart Index” value ([4]; 10 mg/kg/day po) was 0.0056 ± 0.0009, the “Kidney Index” value ([4]; 10 mg/kg/day po) was 0.013 ± 0.002 and the “Liver Index” value ([4]; 10 mg/kg/day po) was 0.057 ± 0.007. The “Histopathological examination of liver, kidney, heart and brain samples” value [4] was “without any histopathological alterations in liver, kidney and brain”, the “Toxicity (overall statement)” value ([4]; oral, 5 and 10 mg/kg/day for 8 consecutive days) was “did not show any noticeable toxicity” and the “%MVD in EAC solid tumor” value (CD31 and CD34 (% MVD)) was “reduction of %MVD”. It also gave an inhibition at 10 µM (c-Kit) of 64% and an inhibition at 10 µM (c-Raf) of 71%.

In the case of `Cn1ccc2ncnc(Oc3ccc(NC(=O)Nc4cccc(C(F)(F)F)c4)c(F)c3)c21` [III], the IC50 (VEGFR-2) is listed as 6.2 nM.

In the case of `CNC(=O)c1cc(Oc2ccc(NC(=O)Nc3ccc(Cl)c(C(F)(F)F)c3)cc2)ccn1` [Sorafenib], the IC50 (RET tyrosine kinase) is listed as 50 nM, the IC50 (wild-type b-Raf) is listed as 25 nM and the IC50 [5] is listed as 57 nM. For the same compound, the “Histopathological examination … (necrosis)” value ([3]; 10 mg/kg) was “wide severe necrosis”, the “Histopathological examination of liver, kidney, heart and brain samples” value [4] was “Degenerative changes were found in the hepatocytes and hippocampus” and the IC50 [6] was 68 nM. For the same compound, the IC50 [7] was 33 nM and the inhibition at 1 µM (c-Raf; read-out: Inhibition %, c-Raf, reference inhibitor) was 92%.
